Patent US20140038181A1, “CHEMICALLY SUBSTITUTED THERMOSENSITIVE PROBES AND COFACTORS FOR HOT START LIGATION” (TRILINK BIOTECHNOLOGIES, priority 2011, published 2014)
In the oligonucleotide strings, read from the 5' end, every base follows the letter of its sugar. An asterisk marks phosphorothioate; unmarked linkages are phosphodiester. Other units and linkages are bracketed, terminal groups are in braces. A string of capitals states the bases alone. [OXT] = OXT-substituted phosphotriester internucleotide linkage; d = 2'-deoxy (DNA)

Experiments:
[1] = molecular target: T1, T4 DNA ligase (Enterobacteria phage T4, UniProt P00970); format: biochemical, bacteriophage T4
T1 construct: purchased New England Biolabs
T1 sequence (P00970 whole entry, looked up): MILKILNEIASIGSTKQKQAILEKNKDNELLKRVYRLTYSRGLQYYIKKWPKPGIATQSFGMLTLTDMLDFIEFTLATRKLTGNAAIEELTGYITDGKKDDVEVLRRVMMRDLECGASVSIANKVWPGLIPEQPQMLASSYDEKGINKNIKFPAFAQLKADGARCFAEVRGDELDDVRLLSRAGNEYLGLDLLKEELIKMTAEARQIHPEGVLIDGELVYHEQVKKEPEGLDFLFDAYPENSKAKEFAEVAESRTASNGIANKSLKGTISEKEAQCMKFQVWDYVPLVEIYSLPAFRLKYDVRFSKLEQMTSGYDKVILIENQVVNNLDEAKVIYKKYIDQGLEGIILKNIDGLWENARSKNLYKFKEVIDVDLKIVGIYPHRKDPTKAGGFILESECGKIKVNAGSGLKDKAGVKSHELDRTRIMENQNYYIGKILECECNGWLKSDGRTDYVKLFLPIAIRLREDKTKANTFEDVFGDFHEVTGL

[2] = Thermal conversion of 2′,3′-substituted ATP to unsubstituted ATP in ligase buffer at 95° C. (HPLC); format: physicochemical; conditions: 1 mM 2′,3′-substituted ATP
Experimental: The reactions were monitored by analysis of the aliquot of incubated mixture by reverse-phase and anion-exchange HPLC.

[3] = system: complementary DNA target sequence; assay: UV-melting temperature of complexes of acceptor probes with complementary DNA target sequence; format: physicochemical; conditions: 2 μM oligonucleotides; for Tm: NaCl 137 mM, KCl 2.7 mM, phosphate buffer pH 7.4, 260 nm; for ΔTm (PDE - PTE): versus unsubstituted acceptor probe, pH 7.4
[4] = molecular target: Tth DNA ligase (Thermus thermophilus, UniProt P26996); assay: Ligase reaction with OXT-SAP and unsubstituted NAD+ cofactor on matched and mismatched DNA template, PAGE analysis; format: biochemical
Tth DNA ligase, sequence (P26996 whole entry): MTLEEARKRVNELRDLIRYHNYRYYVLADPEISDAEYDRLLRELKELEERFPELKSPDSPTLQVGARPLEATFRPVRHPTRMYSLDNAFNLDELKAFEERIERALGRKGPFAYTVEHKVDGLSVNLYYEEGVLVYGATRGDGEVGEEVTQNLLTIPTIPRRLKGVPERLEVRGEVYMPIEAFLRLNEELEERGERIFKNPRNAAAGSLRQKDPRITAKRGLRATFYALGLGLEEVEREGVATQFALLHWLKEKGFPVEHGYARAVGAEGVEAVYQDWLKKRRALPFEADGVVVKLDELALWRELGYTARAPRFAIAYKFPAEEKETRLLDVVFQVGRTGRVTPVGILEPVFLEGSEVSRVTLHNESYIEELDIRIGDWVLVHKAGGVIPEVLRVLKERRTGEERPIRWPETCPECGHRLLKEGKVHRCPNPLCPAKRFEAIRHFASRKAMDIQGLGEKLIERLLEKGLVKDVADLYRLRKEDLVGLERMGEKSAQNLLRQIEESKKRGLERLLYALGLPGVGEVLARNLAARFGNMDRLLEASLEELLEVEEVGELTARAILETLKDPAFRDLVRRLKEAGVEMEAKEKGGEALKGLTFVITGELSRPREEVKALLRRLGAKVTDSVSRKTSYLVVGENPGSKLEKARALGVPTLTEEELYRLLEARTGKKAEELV
Experimental: The ability of Tth DNA ligase to join an OXT-substituted acceptor and donor probes was assessed on a matched and mismatched DNA template in the presence of NAD+ cofactor (see Table 3 for the sequences employed). Each 20 μL reaction was performed in ligase buffer containing 50 mM Tris-HCl (pH 7.5), 10 mM MgCl2, 10 mM dithiothreitol, 25 μg/ml bovine serum albumin and 1 mM NAD+. The OXT-SAP, unsubstituted donor probe and DNA template were at equimolar 0.1 μM concentration. To prevent premature uncontrollable cleavage of the OXT groups from OXT-SAP, the preparation of the ligation mixture was performed in three steps.
First, a binary template-donor complex was prepared by mixing the DNA template and donor strands in ligation buffer, heating the mixture at 95° C. for 2 min, slowly cooling to 4° C. over 15 min, and keeping mixture at 4° C. for 1 hour.
Second, the OXT-SAP was added to the mixture and allowed to stay at 4° C. for 12 hours.
Third, a solutions of NAD+ in ligation buffer was added and ligation was initiated by adding 2 units of Tth DNA ligase to reaction mixture. Ligation proceeded at room temperature for 1 hr and analyzed by PAGE on TBE-Urea denaturing 15% gel (FIG. 12).

Nc1ncnc2c1ncn2[C@@H]1O[C@H](COP(=O)(O)OP(=O)(O)OP(=O)(O)O)[C@@H](O)[C@H]1O [unsubstituted ATP, ATP]
formation of ligation product [1]: ample formation of 80(+)-mer ligation product

Nc1ncnc2c1ncn2[C@@H]1O[C@H](COP(=O)(O)OP(=O)(O)OP(=O)(O)O)[C@@H](OC2CCCO2)[C@H]1OC1CCCO1 (stereo partly shown) [—O(THF), 2′,3′-O-bis-tetrahydrofuranyl-adenosine-5′triphosphates]
Concentration of unsubstituted ATP ([2]; ligase buffer pH 7.5, 5 min): 2.8 µM
Concentration of unsubstituted ATP ([2]; ligase buffer pH 7.5, 10 min): 4.6 µM
Concentration of unsubstituted ATP ([2]; ligase buffer pH 7.5, 20 min): 17.3 µM
Concentration of unsubstituted ATP ([2]; ligase buffer pH 7.5, 45 min): 72.7 µM
Concentration of unsubstituted ATP ([2]; ligase buffer pH 7.5, 80 min): 182.2 µM

Double OXT12: TACTATGGTCCACACAACTATTG(OXT)C (OXT)T (DNA dTdAdCdTdAdTdGdGdTdCdCdAdCdAdCdAdAdCdTdAdTdTdG[OXT]dC[OXT]dT)
Tm [3]: 66.2 °C
ΔTm (PDE - PTE) [3]: −2.6 °C

Double OXT23: TACTATGGTCCACACAACTATT(OXT)G(OXT)C T (DNA dTdAdCdTdAdTdGdGdTdCdCdAdCdAdCdAdAdCdTdAdTdT[OXT]dG[OXT]dCdT)
Tm [3]: 65.4 °C
ΔTm (PDE - PTE) [3]: −3.5 °C

Single OXT1: TACTATGGTCCACACAACTATTGC (OXT)T (DNA dTdAdCdTdAdTdGdGdTdCdCdAdCdAdCdAdAdCdTdAdTdTdGdC[OXT]dT)
Tm [3]: 67.5 °C
ΔTm (PDE - PTE) [3]: −1.4 °C

Single OXT2: TACTATGGTCCACACAACTATTG(OXT)C T (DNA dTdAdCdTdAdTdGdGdTdCdCdAdCdAdCdAdAdCdTdAdTdTdG[OXT]dCdT)
Tm [3]: 66.6 °C
ΔTm (PDE - PTE) [3]: −2.3 °C

Unsubstituted: TACTATGGTCCACACAACTATTGCT (Table 7 acceptor probe) (DNA TACTATGGTCCACACAACTATTGCT; acceptor probe, label not given here) [reference compound]
Tm [3]: 68.9 °C

unsubstituted acceptor probe: CCCTGTTCCAGCGTCGGTGTTGCGTT (Table 3) (unmodified DNA)
formation of ligation product ([4]; matched template, additionally incubated 1 h at 75° C.): ample formation of ligation product
formation of ligation product ([4]; matched template, room temperature, 1 hr): efficient formation of ligation product
formation of ligation product ([4]; mismatched DNA template, 120 hrs of incubation): a small amount of ligation product was formed
formation of ligation product ([4]; mismatched DNA template, 120 hrs, additionally incubated 1 h at 75° C.): substantial accumulation of ligation product
